# In patent publication US20240016779A1, “COMPOSITION FOR PREVENTING AND TREATING INFLAMMATORY DISEASE AND AUTOIMMUNE DISEASES AND NON-ALCOHOLIC FATTY LIVER DISEASE, COMPRISING EXTRACT DERIVED FROM CENTIPEDA MINIMA” (D-NATURE CO., LTD., priority 2020, published 2024):
# What was measured:
# Assay type in all cases: cell-based
# 3T3-L1 cells [1] = experiment: TNF-a induced IL-6 production in preadipocytes; conditions: 0.16 to 2.5 μg/ml
# Procedure: To confirm the non-alcoholic steatohepatitis inhibitory effect of the Centipeda minima extract, an experiment was performed with INF-a induced IL-6 production in preadipocytes according to an inflammatory disease treatment agent.
# (§1) Specifically, the evaluation was performed by using 3T3-L1 cells, which are preadipocytes, and after the 3T3-L1 cells were treated with each of JAKI and elafibranor at concentrations of 0 μg/ml, 0.16 μg/ml, 0.31 μg/ml, 0.63 μg/ml, 1.25 μg/ml, and 2.5 μg/ml and then cultured for 6 hours under the same conditions, the changes of the IL-6 production were analyzed.
# 3T3-L1 cells [2] = experiment: Adipocyte differentiation inhibitory effect; conditions: tested 0.16, 0.31, 0.63, 1.25 μg/ml
# Procedure: To confirm the effect of the Centipeda minima extract for inhibiting non-alcoholic steatohepatitis, an experiment was performed on preadipocytes according to an inflammatory disease treatment agent.
# Specifically, the evaluation was performed by using 3T3-L1 cells, which are preadipocytes, and after the 3T3-L1 cells were treated with each of JAKI and elafibranor at concentrations of 0 μg/ml, 0.16 μg/ml, 0.31 μg/ml, 0.63 μg/ml, and 1.25 μg/ml and then cultured for 6 hours under the same conditions, the changes of the 3T3-L1 cells were analyzed.
# 3T3-L1 cells [3] = experiment: TNF-a induced MCP-1 production in preadipocytes; conditions: 0.16 to 2.5 μg/ml
# Procedure: To confirm the non-alcoholic steatohepatitis inhibitory effect of the Centipeda minima extract, an experiment was performed with TNF-a induced MCP-1 production in preadipocytes according to an inflammatory disease treatment agent.
# as §1, with “MCP-1” for “IL-6”
# LX-2 cells = experiment: Liver fibrosis-related protein expression; conditions: 40 μM, 24 hours
# Procedure: Specifically, the evaluation was performed by using LX-2 cells, which are hepatic stellate cells. LX-2 cells treated with TGF-P1 at a concentration of 5 ng/ml were treated with JAKI at concentrations of 0 μM, 20 μM, and 40 μM, and then cultured under the same conditions for 24 hours. Thereafter, the protein expression levels of TGF-131, collagen type-1, MMP-2, TIMP1, and GAPDH, and the protein expression ratios of TGF-131, collagen type-1, MMP-2, and TIMP1 compared to GAPDH were analyzed.
# Specifically, the evaluation was performed by using LX-2 cells, which are hepatic stellate cells. The LX-2 cells treated with 5 ng/ml TGF-P1 were treated with elafibranor at concentrations of 0 μM, 20 μM, 40 μM, and 80 μM in the control group of the present invention, and the cultured for 24 hours under the same conditions. Then, the protein expression ratios of TGF-131, collagen type-1, MMP-2, and TIMP1 compared to GAPDH were analyzed.
compound,measurement,setting,value
CSc1ccc(C(=O)/C=C/c2cc(C)c(OC(C)(C)C(=O)O)c(C)c2)cc1 [elafibranor],change in the IL-6 production,3T3-L1 cells [1],no change
same,concentration from which adipocyte differentiation is inhibited,3T3-L1 cells [2],≥ 0.63 µg/mL
same,change in the MCP-1 production,3T3-L1 cells [3],no change
same,expression ratio of MMP-2 protein compared to GAPDH,LX-2 cells,decreased
same,expression ratio of TGF-β1 protein compared to GAPDH,LX-2 cells,decreased
same,expression ratio of TIMP1 protein compared to GAPDH,LX-2 cells,decreased
same,expression ratio of collagen type-1 protein compared to GAPDH,LX-2 cells,decreased
